Where no end group is shown, it is not given here.
Tests used:
[1] = test system: db/db mice; test: In vivo bioassay: blood glucose in db/db mice after intraperitoneal injection; conditions: for Mean Blood Glucose Levels: i.p.; for Activity (reduced plasma glucose), in words: high dose
Protocol: Tested Study Groups. Naïve, 8 weeks old female db/db mice were acclimated for one week, during which period animals were handled periodically to allow them to be acclimated to experiment procedures. Study groups contained 6 mice per group and were administered with one of the following by intraperitoneal injection:
(2) Positive control (exendin-4 or other standard treatment);
(3) Polypeptide Analog at high dose; or
(4) Polypeptide Analog at low dose.
A small volume of blood was taken from a cut at the tip of tail for blood sampling. Blood glucose levels were determined on a commercial, hand-held glucose meter. On Day 1, animals were injected with polypeptide analogs and controls in the morning. Blood samples were taken and analyzed immediately before injection and at 2, 4, 8, 14, and 24 hours after injection. Animals were allowed to feed, ad libitem, throughout the assay (Tsutsumi et al., Diabetes 51:1453-60 (2002)).

[2] = test system: Rat islets; test: In vitro bioassay with islet cell static cultures (insulin secretion, ELISA); assay type: cell-based; conditions: for Insulin secreted: Table 2, 120 min incubation; for Concentration at which maximal activity was exhibited in the assay: islet static culture, insulin secretion; for Average Insulin secreted: Table 3
Protocol: Islet isolation. […] Generally, the islets were prepared by injecting collagenase (10 mL of 0.23 mg/mL Liberase, Roche Molecular Biochemicals, Indianapolis, Ind.) into the pancreatic duct of the partially dissected pancreas and surgically removing it. All procedures were approved by the Institutional Animal Care and Use Committee at the University of Washington.
The pancreata were placed into 15 mL conical tubes containing 5 mL of 0.23 mg/mL Liberase and incubated at 37° C. for 30 min. The digestate was then filtered through a 400-micrometer stainless steel screen, rinsed with Hanks' buffered salt solution, and purified in a gradient solution of Optiprep (Nycomed, Oslo, Norway).
Bioassay. Islets were picked under a microscope and placed into 10 ml 3 mM Krebs Ringer Buffer (KRB) solution for washing. Islets were incubated in 3 mM glucose KRB for 60 min and then groups of 10 islets per well were placed into 200 μl media in a 96-well plate. […] The buffer conditions were KRB with 0.1% BSA, 20 mM HEPES and the assay was performed in quadruplicate. Supernatants were evaluated for insulin content using a commercial insulin enzyme-linked immunosorbent (ELISA) assay per manufacturer's directions.

[3] = High dose, 0 hr (immediately before injection)
[4] = High dose, 2 hr after injection
[5] = High dose, 4 hr after injection
[6] = High dose, 8 hr after injection
[7] = High dose, 14 hr after injection
[8] = High dose, 24 hr after injection
[9] = Low dose, 0 hr (immediately before injection)
[10] = Low dose, 14 hr after injection
[11] = Low dose, 24 hr after injection

Substance: TP-106: highly hydrophobic polypeptide analog, designed to depot in the site of sc injection; SEQ ID NO: 5 (HSDAVFTDNYTRLRKQVAAKKYLNSIKKGKRELLEKLK)
- Mean Blood Glucose Levels [1, 3]: 21.8 mmol/L
- Mean Blood Glucose Levels [1, 4]: 13.4 mmol/L
- Mean Blood Glucose Levels [1, 5]: 14.7 mmol/L
- Mean Blood Glucose Levels [1, 6]: 25.1 mmol/L
- Mean Blood Glucose Levels [1, 7]: 26.3 mmol/L
- Mean Blood Glucose Levels [1, 8]: 21.2 mmol/L
- Mean Blood Glucose Levels [1, 9]: 23.9 mmol/L
- Mean Blood Glucose Levels ([1]; Low dose, 2 hr after injection): 20.5 mmol/L
- Mean Blood Glucose Levels ([1]; Low dose, 4 hr after injection): 16.1 mmol/L
- Mean Blood Glucose Levels ([1]; Low dose, 8 hr after injection): 24.0 mmol/L
- Mean Blood Glucose Levels [1, 10]: 28.2 mmol/L
- Mean Blood Glucose Levels [1, 11]: 23.2 mmol/L
- Activity (reduced plasma glucose), in words ([1]; 2 hr after injection): statistically significant activity
- Activity (reduced plasma glucose), in words ([1]; 4 hrs post dosing): maintains activity
- Insulin secreted ([2]; 50 nM peptide + 16 mM glucose): 2.72 ng/100 islets/min
- Insulin secreted ([2]; 200 nM peptide + 16 mM glucose): 5.20 ng/100 islets/min
- Concentration at which maximal activity was exhibited in the assay [2]: 200 nM

Substance: TP-108: exemplary synthetic polypeptide analog of PACAP/VIP, amino acid sequence SEQ ID NO: 7 (HSDAVFTDNYTRLRKQLAAKKYLNSIKKGKRLLRKLQPPPK; ends and bridges not checked)
- Average Insulin secreted ([2]; 100 nM peptide + 16 mM glucose): 4.10 ng/100 islets/min
- Average Insulin secreted ([2]; 1 uM peptide + 16 mM glucose): 5.65 ng/100 islets/min

Substance: TP-103: exemplary synthetic polypeptide analog of PACAP/VIP, amino acid sequence SEQ ID NO: 2 (HSDAVFTDNYTRLRKQVAAKKYLNSIKKGKRELLEKLLRKLK; ends and bridges not checked)
- Mean Blood Glucose Levels [1, 3]: 20.7 mmol/L
- Mean Blood Glucose Levels [1, 4]: 17.3 mmol/L
- Mean Blood Glucose Levels [1, 5]: 16.9 mmol/L
- Mean Blood Glucose Levels [1, 6]: 23.4 mmol/L
- Mean Blood Glucose Levels [1, 7]: 23.7 mmol/L
- Mean Blood Glucose Levels [1, 8]: 25.0 mmol/L
- Mean Blood Glucose Levels [1, 9]: 22.9 mmol/L
- Mean Blood Glucose Levels ([1]; Low dose, 2 hr after injection): 20.5 mmol/L
- Mean Blood Glucose Levels ([1]; Low dose, 4 hr after injection): 17.6 mmol/L
- Mean Blood Glucose Levels ([1]; Low dose, 8 hr after injection): 26.4 mmol/L
- Mean Blood Glucose Levels [1, 10]: 24.6 mmol/L
- Mean Blood Glucose Levels [1, 11]: 21.4 mmol/L

Substance: TP-107: exemplary synthetic polypeptide analog of PACAP/VIP, amino acid sequence SEQ ID NO: 6 (HSDAVFTDNYTRLRKQVAAKKYLNWIKKAKRELLEKLK; ends and bridges not checked)
- Average Insulin secreted ([2]; 10 nM peptide + 16 mM glucose): 2.89 ng/100 islets/min
- Average Insulin secreted ([2]; 100 nM peptide + 16 mM glucose): 6.10 ng/100 islets/min
- Average Insulin secreted ([2]; 1 uM peptide + 16 mM glucose): 6.07 ng/100 islets/min
- Concentration at which maximal activity was exhibited in the assay [2]: 100 nM

— patent publication US7595294B2, “Vasoactive intestinal polypeptide pharmaceuticals” (Transition Therapeutics, Inc., priority 2004, dated 2009)
